Results: US11180783B2, “Method for producing chiral amines” (VITO NV, priority 2017, dated 2021)

Legend:
[1] = system: 3FCR; test: glycine oxidase assay, TA screening towards HMW amino donors; type: biochemical, Ruegeria sp. TM1040; parameters: key: 0: no activity detected; conditions: wildtype TA; 20 mM amino donor (2.5 mM α-MBA), 2.5 mM glyoxylate, CHES pH 9.5, 37° C., absorbance 498 nm
Method: (§1) The HMW amino donors listed in Table 1 were tested in a feasibility study for reaction with TA enzymes (the HMW amino donors being commercially available and relatively cheap). More particularly, in this study the acceptance of HMW amino donors by TA enzymes was investigated running a glycine oxidase assay (as described by WeiB et al. in Anal. Chem. 2014, 86, 11847-11853). Thereto, 25 wild type transaminases were selected from a library of enzymes. Transaminase selection was made on the basis of TAs availability, broad substrate and amino donor scope, and stability.
(§2) Final substrate concentration amounted to 2.5 mM glyoxylate, 20 mM large amino donor, 7.28 U/mL horseradish peroxidase, 0.12 mg/mL purified glycine oxidase, 3 mM 4-amino antipyrine, and 4.7 mM vanillic acid in CHES buffer (100 mM) with pH 9.5, in total reaction volumes of 150 μL. Cells with empty pET28a(+) vector were applied as negative control. A reaction using 2.5 mM α-MBA was applied as positive control.
(§3) The above (photometric) assay is semiquantitative: the increasing absorbance (slope in FIG. 4.1) correlates with enzyme activity. An accurate quantification, however, was difficult to be performed as the assay is a multi-enzyme reaction.
(§4) TA_3HMU was then further tested with three commercially available HMW Jeffamines® (AD 3, 4 and 6).

[2] = system: Vfl; test: as above; type: biochemical, Vibrio fluvialis JS17; parameters: key: 0: no activity detected; conditions: wildtype TA; 20 mM amino donor (2.5 mM α-MBA), 2.5 mM glyoxylate, CHES pH 9.5, 37° C., absorbance 498 nm
Method: as §1, §2, §3, §4

[3] = system: 3HMU; test: as above; type: biochemical, Ruegeria pomeroyi; parameters: key to TA activity towards amino donor (3HMU): 0: no activity detected; conditions: for TA activity towards amino donor (3HMU): wildtype (S)-selective TA, 20 mM amino donor (2.5 mM α-MBA), 2.5 mM glyoxylate, CHES pH 9.5, 37° C., absorbance 498 nm; for TA_3HMU activity / acceptance of amino donor, in words: glycine oxidase assay, semiquantitative
Method: as §1, §2, §3, §4

[4] = system: MycVan; test: as above; type: biochemical, Mycobacterium vanbaalenii; parameters: key: 0: no activity detected; conditions: wildtype TA; 20 mM amino donor (2.5 mM α-MBA), 2.5 mM glyoxylate, CHES pH 9.5, 37° C., absorbance 498 nm
Method: as §1, §2, §3, §4

[5] = system: AspFum; test: as above; type: biochemical, Aspergillus fumigatus; parameters: key: 0: no activity detected; conditions: wildtype (R)- TA; 20 mM amino donor (2.5 mM α-MBA), 2.5 mM glyoxylate, CHES pH 9.5, 37° C., absorbance 498 nm
Method: as §1, §2, §3, §4

[6] = system: ATA 117; test: as above; type: biochemical, Arthrobacter sp.; parameters: key: 0: no activity detected; conditions: wildtype TA; 20 mM amino donor (2.5 mM α-MBA), 2.5 mM glyoxylate, CHES pH 9.5, 37° C., absorbance 498 nm
Method: as §1, §2, §3, §4

[7] = system: AspOry; test: as above; type: biochemical, Aspergillus oryzae; parameters: key: 0: no activity detected; conditions: wildtype TA; 20 mM amino donor (2.5 mM α-MBA), 2.5 mM glyoxylate, CHES pH 9.5, 37° C., absorbance 498 nm
Method: as §1, §2, §3, §4

[8] = system: TA_3HMU; test: asymmetric amine synthesis (transamination) with TA_3HMU; type: biochemical, Ruegeria pomeroyi; conditions: for product formation from ketosubstrate with HMW amino donors: TA_3HMU, TLC or chiral GC analysis, no equilibrium shifting strategy; for BA conversion: crude extract lyophilized TA_3HMU (3 mg/mL), 25 times excess amine donor (250 mM)
Method: Asymmetric synthesis of chiral amines were performed using HMW amino donors and substrates 1a, 1b and 1c in the presence of TA_3HMU enzyme. […] However, performing the transamination reaction using substrates 1a or 1b, followed by a separation of the formed amine product using a membrane unit (8), according to advantageous aspects of the disclosure, will further shift the thermodynamic equilibrium to the product side of the reaction, thereby improving the product purity of the produced amine product.
Asymmetric amine synthesis experiments were performed using freeze-dried crude extract of TA_3HMU, provided by the company Enzymicals (Germany) and using PEG-A and PEG-C as amino donors (the activity of the enzyme being 970 mU/mg, photometric assay based on acetophenone detection). For a first test, a quite high amount of enzyme (12.5 mg/mL freeze dried powder, corresponding to about 6 mg/mL of total protein content) was used. In addition to poly ethylene glycol molecules (PEGs), the common and cheap LMW amino donor IPA was also investigated. Unlike PEGs, which can be retained by a porous (nanofiltration) membrane (3) with appropriate MWCO and/or pore size, the LMW amino donor IPA will also permeate forming the second solution (2).
Asymmetric amine synthesis experiments were also performed using amine transaminases TA_v2, purchased from c-LEcta GmbH, Leipzig, Germany. The purified enzyme was supplied as freeze-dried powder, the activity of TA_v2 being 1.73 U/mg. All reactions were performed in 1 mL volume containing 12.5-0.78 mg/mL of either TA_3HMU or TA_v2 powder, 10-500 mM amine donor (IPA, PEG-A and PEG-C, 10 mM BA model substrate (dissolved in DMSO) and 0.1 mM PLP in 100 mM CHES buffer, pH 9.5. The final DSMO concentration was 5% (v/v). […]
Substrate (BA) and product (MPPA) concentrations were determined by UHPLC (Thermo Scientific™) with UV detection at 194/210 nm. The chromatographic separation was achieved using 1 μL injection onto a C18 reversed-phase column (Waters Acquity UPLC® BEH C18 1.7 μm 2.1×50 mm). The column temperature was kept at 40° C. The gradient elution program is using mobile phase A 0.1% Formic Acid (FA) in Water (dH2O) and mobile phase B 0.1% FA in acetonitrile (ACN). The elution program was as follows: 0-4 min 99-30% A; 4-5 min 30-1% A; 5-5.1 min 1-99% A; 5.1-7.5 min 99% A; all at a flowrate of 400 μL/min. Amine donors AD 3 and AD 6 were analysed by HPLC with ELSD detector on Alltima HP C18 HL 5 μ, 4.6×250 mm. The eluents for PEGs analysis were: A) dH2O, 0.1% FA; B) ACN, 0.1% FA.
Furthermore, tests were conducted using different loadings of freeze-dried crude extract of TA_3HMU. Since the biotransformation could not be observed photometrically, continuous time-dependent following of the enzyme reaction was not possible. Therefore, laborious stopped enzyme assay providing only few measure points had to be employed. As expected, the initial reaction rate decreased when the enzyme loading was reduced. In presence of IPA donor amine, higher conversions were achieved. However, the reaction end-point decreased, reducing the enzyme amount (cf. FIG. 5.2c). […] Experimental conditions in FIG. 5.2: 10 mM BA; 250 mM AD; 0.1 mM PLP; 5% DMSO; 100 mM CHES buffer, pH 9.5, 30° C., 1000 rpm.
As already discussed hereinabove, using IPA as amine donor in transaminase reactions, a very high amount (e.g. 50-100 fold) amine donor excess is required, complicating downstream processing and possibly hampering the stability and activity of TAs (cf. e.g. Slabu, I. et al. in Catal. Today 306, 96-101 (2018); Savile, C. K. et al. in Science 329, 305-9 (2010); Dawood, A. W. H. et al. in ChemCatChem 10, 951-955 (2018)). TA_3HMU stability towards IPA and HMW ADs 3 and 6 was therefore explored. […] In contrast to IPA, in presence of bulky donor amines (cf. FIG. 5.3a and FIG. 5.3b). Experimental conditions in FIG. 5.3: 10 mM BA; 250 mM amine donor (AD 3, AD 6 or IPA); 0.1 mM PLP; 5% DMSO; 100 mM CHES buffer, pH 9.5, 30° C., 1000 rpm. […]

[9] = on line nanofiltration (Desal-DK membrane) coupled with enzymatic reaction; type: biochemical; conditions: after 1.5 h, BA manually diafiltrated (40 mM)
Method: Diafiltration depends on the permeate flow rate since it occurs at the same rate of permeation. Therefore, reaction and permeation rates are to be matched. When solution of high concentrated substrate (BA 200 mM in DMSO) was subjected to diafiltration, BA was accumulating in the enzymatic tank 6 (FIG. 20).
Permeate flux was very low, therefore BA was manually diafiltrated (40 mM). After 1.5 h, 18% BA was converted.

[10] = system: TA_v2; type: biochemical
Method: Reaction was performed in 600 mL volume containing 2 mg/mL of TA_v2 powder, 250 mM AD 6, 10 mM BA substrate (dissolved in DMSO) and 0.1 mM PLP in 100 mM CHES buffer, pH 9.5. The final DSMO concentration was 5% (v/v). After 16 h of reaction, 550 mL of reaction mixture was transferred into the membrane unit and 2 intermittent nanofiltration tests were performed. The remaining 50 mL of reaction mixture was used as control without filtration. After the first nanofiltration (6 h duration, DESAL® DK, 20 bar), the collected permeate and the retentate were mixed, and 5 mM of additional BA substrate were added. Additional substrate was added also to the control condition. After 16 h of reaction, the second nanofiltration was performed (5 h duration, DuraMem® 200, 20 bar). Reaction permeate and retentate samples were taken after distinct time periods and prepared for quantitative analysis.
Addition of BA (5 mM) was made to the enzymatic tank E-1 after 24 h reaction. The second nanofiltration was run after 39 h reaction (DuraMem® 200 membrane, 20 bar).

NCCCNCCNCCCN [AD 1, 1,2-bis(3-aminopropylamino)ethane]
TA activity towards amino donor (3FCR) [1]: 0
TA activity towards amino donor (Vfl) [2]: 0
TA activity towards amino donor (3HMU) [3]: 0
TA activity towards amino donor (MycVan) [4]: 0
TA activity towards amino donor (AspFum) [5]: 0
TA activity towards amino donor (ATA 117) [6]: 0
TA activity towards amino donor (AspOry) [7]: 0

CC(N)c1ccccc1 (stereo not drawn) [α-MBA, 1-phenylethylamine, reference compound]
TA activity towards amino donor (MycVan) [4]: 0
TA activity towards amino donor (AspOry) [7]: 0

CC(=O)c1ccccc1 [1a, acetophenone]
product formation from ketosubstrate with HMW amino donors [8]: very low product formation

NCCNC(=O)CCN(CCC(=O)NCCN)CCN(CCC(=O)NCCN)CCC(=O)NCCN [AD 5]
TA activity towards amino donor (3FCR) [1]: 0
TA activity towards amino donor (Vfl) [2]: 0
TA activity towards amino donor (3HMU) [3]: 0
TA activity towards amino donor (MycVan) [4]: 0
TA activity towards amino donor (AspFum) [5]: 0
TA activity towards amino donor (ATA 117) [6]: 0
TA activity towards amino donor (AspOry) [7]: 0

CC(=O)CCc1ccccc1 [BA, benzylacetone]
BA converted [9]: 18%
product formation from ketosubstrate with HMW amino donors [8]: qualitatively detected
additional BA converted ([10]; 16 h after 5 mM substrate addition, NF reaction mixture and control (Reaction_2, Control-Reaction_2)): ~17%
BA further converted ([10]; Control-reaction_1, following 6 h, without filtration): 2%
unreacted substrate lost in the permeate stream ([10]; Desal-DK): ~58%
additional substrate conversion ([10]; NF-1, 6 h nanofiltration, Desal DK, 20 bar): 10%
BA converted ([10]; Reaction_1, 16 h, 10 mM BA, 250 mM AD 6, 2 mg/mL TA_v2): ~55%

NCCCN1CCN(CCCN)CC1 [AD 2, 1,4-Bis(3-aminopropyl)piperazine]
TA_3HMU activity / acceptance of amino donor, in words [3]: high activity
TA activity towards amino donor (MycVan) [4]: 0
TA activity towards amino donor (AspFum) [5]: 0

CC(C)N [IPA, isopropyl amine, reference compound]
TA_3HMU stability in presence of amine donor ([8]; 250 mM amine donor (25-fold excess), 10 mM BA, 3.125 mg/mL enzyme, pH 9.5, 30° C.): fast inactivated

CC(=O)c1ccccc1Br [1b, ortho-bromoacetophenone]
product formation from ketosubstrate with HMW amino donors [8]: very low product formation

(highly flexible) poly(ethylene glycol) bis (3-aminopropyl) [AD 7]
TA activity towards amino donor (Vfl) [2]: 0
TA_3HMU activity / acceptance of amino donor, in words [3]: high activity
TA activity towards amino donor (MycVan) [4]: 0
TA activity towards amino donor (AspFum) [5]: 0
TA activity towards amino donor (AspOry) [7]: 0

Poly(propylene glycol) bis(2-aminopropyl ether) [AD 3]
BA conversion ([8]; 10 mM BA): 45%
TA_3HMU activity / acceptance of amino donor, in words [3]: broadly comparable to those achieved with the positive control
TA_3HMU activity / acceptance of amino donor, in words ([3]; listed as PEG-A): best acceptance

CC(N)CCc1ccccc1 (centres unmarked) [1M3P, 1-methyl-3-phenylpropylamine]
additional product formation ([10]; NF-2, DuraMem® 200, 20 bar): 15%

O,O′-bis(2-aminopropyl) polypropylene glycol-block-polyethylene glycol-block-polypropylene glycol [AD 6]
BA conversion ([8]; 10 mM BA): 51%
TA_3HMU activity / acceptance of amino donor, in words [3]: broadly comparable to those achieved with the positive control
TA_3HMU activity / acceptance of amino donor, in words ([3]; listed as PEG-C): best acceptance
